Source: ChEMBL document CHEMBL1275373, “Identification by high-throughput screening of inhibitors of Schistosoma mansoni NAD(+) catabolizing enzyme” (Bioorg Med Chem, 2010)
The source made the active and inactive calls. The calls are words filed in the database; no cut-off is given here.

How the values were obtained:
Schistosoma mansoni = assay: Inhibition of Schistosoma mansoni recombinant NAD+ glycohydrolase expressed in Pichia pastoris at up to 100 uM by continuous fluorometric method
[1] = Inhibition of Schistosoma mansoni recombinant NAD+ glycohydrolase expressed in Pichia pastoris by continuous fluorometric method
[2] = Competitive inhibition of Schistosoma mansoni recombinant NAD+ glycohydrolase expressed in Pichia pastoris by Michaelis-Menten equation analysis

Row | Compound | IC50 [1] | also measured
1 | COc1cc(/C=C/C(=O)CC(=O)/C=C/c2ccc(O)c(OC)c2)ccc1O | – | inhibition (Schistosoma mansoni): < 10%
2 | CN(C)CC(=O)Nc1ccc2[nH]c(=O)c3ccccc3c2c1 | – | inhibition (Schistosoma mansoni): < 10%
3 | Oc1cc(O)cc(/C=C/c2ccc(O)c(O)c2)c1 [PICEATANNOL] | > 100 µM | –
4 | O=C(C1CCCCC1)N1CC(=O)N2CCc3ccccc3C2C1 (configuration not stated) | – | inhibition (Schistosoma mansoni): < 10%
5 | Oc1cc(O)c2ccc(-c3ccc(O)c(O)c3)[o+]c2c1 [LUTEOLINIDIN] | 5.9 µM | –
6 | CCN(CC)CCCC(C)Nc1ccnc2cc(Cl)ccc12 (configuration not stated) | – | Activity (Schistosoma mansoni): inactive
7 | Oc1ccc(/C=C/c2cc(O)cc(O)c2)cc1 [RESVERATROL] | > 100 µM | –
8 | Oc1ccc(-c2[o+]c3cc(O)cc(O)c3cc2O)cc1 [PELARGONIDIN] | 4.4 µM | –
9 | O=c1c(O)c(-c2ccc(O)c(O)c2)oc2cc(O)c(O)c(O)c12 [QUERCETAGETIN] | 1.3 µM | –
10 | Oc1cc(O)c2c(c1)OC(c1ccc(O)c(O)c1)C(O)C2 (configuration not stated) [CATECHIN] | > 100 µM | –
11 | O=c1c(O)c(-c2cc(O)c(O)c(O)c2)oc2cc(O)ccc12 [ROBINETIN] | 5.8 µM | –
12 | O=c1c(O)c(-c2ccc(O)c(O)c2)oc2cc(O)cc(O)c12 [QUERCETIN] | 3.9 µM | –
13 | COc1ccc(-c2ccc3c(O)cc(O)cc3[o+]2)cc1O [DIOSMETINIDIN] | 9.9 µM | –
14 | O=C1NC(=O)c2cccc3cccc1c23 | – | inhibition (Schistosoma mansoni): < 10%
15 | Oc1ccc(-c2[o+]c3cc(O)c(O)c(O)c3cc2O)cc1O [QUERCETAGETINIDIN] | 6.1 µM | –
16 | Cc1ccc(C(=O)Nc2ccc(S(=O)(=O)O)c3cc(S(=O)(=O)O)cc(S(=O)(=O)O)c23)cc1NC(=O)c1cccc(NC(=O)Nc2cccc(C(=O)Nc3cc(C(=O)Nc4ccc(S(=O)(=O)O)c5cc(S(=O)(=O)O)cc(S(=O)(=O)O)c45)ccc3C)c2)c1 | – | inhibition (Schistosoma mansoni): < 10%
17 | O=c1cc(-c2ccc(O)c(O)c2)oc2cc(O)cc(O)c12 [LUTEOLIN] | 8.4 µM | –
18 | O=c1c(O)c(-c2cc(O)c(O)c(O)c2)oc2cc(O)cc(O)c12 [MYRICETIN] | 22 µM | –
19 | O=C1c2c(O)cc(O)cc2OC(c2ccc(O)c(O)c2)C1O (configuration not stated) [TAXIFOLIN] | 19.5 µM | –
20 | COc1cc(-c2[o+]c3cc(O)cc(O)c3cc2O)cc(OC)c1O [MALVIDIN] | 8 µM | –
21 | OC(c1cc(C(F)(F)F)nc2c(C(F)(F)F)cccc12)C1CCCCN1 (configuration not stated) | – | Activity (Schistosoma mansoni): inactive
22 | COc1cc(-c2[o+]c3cc(O)cc(O)c3cc2O)cc(O)c1O [PETUNIDIN] | 37.8 µM | –
23 | Oc1cc(O)c2cc(O)c(-c3cc(O)c(O)c(O)c3)[o+]c2c1 [DELPHINIDIN] | 6 µM | –
24 | OC[C@H]1O[C@@H](Oc2cc3c(O)cc(O)cc3[o+]c2-c2ccc(O)c(O)c2)[C@H](O)[C@@H](O)[C@@H]1O [KUROMANIN] | 8.2 µM | –
25 | Oc1ccc2cc(O)c(-c3ccc(O)c(O)c3)[o+]c2c1 [FISETINIDIN] | 6.4 µM | –
26 | Oc1cc(O)c2cc(O)c(-c3ccc(O)c(O)c3)[o+]c2c1 [CYANIDIN] | 2.3 µM | Ki [2]: 2.1 µM
